What was measured:
[1] = target: T1, GABA-A receptor; alpha-5/beta-3/gamma-2 (Homo sapiens, UniProt P18507+P28472+P31644); assay: Displacement of [3H]Ro151788 from human recombinant alpha5beta3gamma2 GABAA receptor stably expressed in HEK293 cell membrane assessed as inhibition constant by radioligand binding assay; format: cell membranes
T1 sequence (P18507 whole entry): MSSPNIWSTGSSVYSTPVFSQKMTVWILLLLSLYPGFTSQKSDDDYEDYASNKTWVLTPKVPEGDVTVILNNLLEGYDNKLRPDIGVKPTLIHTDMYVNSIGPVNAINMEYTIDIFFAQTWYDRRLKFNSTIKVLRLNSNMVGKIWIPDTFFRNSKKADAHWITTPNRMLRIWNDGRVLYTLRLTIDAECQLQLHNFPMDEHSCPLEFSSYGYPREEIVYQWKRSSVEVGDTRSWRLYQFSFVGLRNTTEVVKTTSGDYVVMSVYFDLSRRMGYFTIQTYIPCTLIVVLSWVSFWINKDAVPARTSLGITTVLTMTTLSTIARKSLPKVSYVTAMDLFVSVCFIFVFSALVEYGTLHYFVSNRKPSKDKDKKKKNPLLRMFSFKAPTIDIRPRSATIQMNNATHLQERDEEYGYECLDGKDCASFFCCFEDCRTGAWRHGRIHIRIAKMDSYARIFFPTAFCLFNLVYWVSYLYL
T1 sequence (P28472 whole entry): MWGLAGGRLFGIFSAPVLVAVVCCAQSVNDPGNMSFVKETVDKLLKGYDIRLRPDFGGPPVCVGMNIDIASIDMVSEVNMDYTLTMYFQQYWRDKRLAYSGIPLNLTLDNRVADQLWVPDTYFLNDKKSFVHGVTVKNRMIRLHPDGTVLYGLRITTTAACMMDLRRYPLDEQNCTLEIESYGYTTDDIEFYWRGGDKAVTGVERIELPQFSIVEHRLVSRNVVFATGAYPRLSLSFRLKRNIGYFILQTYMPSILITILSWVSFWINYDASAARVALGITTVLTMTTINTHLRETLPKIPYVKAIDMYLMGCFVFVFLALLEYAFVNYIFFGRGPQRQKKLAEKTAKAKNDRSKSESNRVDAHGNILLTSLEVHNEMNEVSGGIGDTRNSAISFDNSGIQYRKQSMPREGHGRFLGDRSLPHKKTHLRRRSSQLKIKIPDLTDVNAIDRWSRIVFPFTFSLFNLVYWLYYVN
T1 sequence (P31644 whole entry): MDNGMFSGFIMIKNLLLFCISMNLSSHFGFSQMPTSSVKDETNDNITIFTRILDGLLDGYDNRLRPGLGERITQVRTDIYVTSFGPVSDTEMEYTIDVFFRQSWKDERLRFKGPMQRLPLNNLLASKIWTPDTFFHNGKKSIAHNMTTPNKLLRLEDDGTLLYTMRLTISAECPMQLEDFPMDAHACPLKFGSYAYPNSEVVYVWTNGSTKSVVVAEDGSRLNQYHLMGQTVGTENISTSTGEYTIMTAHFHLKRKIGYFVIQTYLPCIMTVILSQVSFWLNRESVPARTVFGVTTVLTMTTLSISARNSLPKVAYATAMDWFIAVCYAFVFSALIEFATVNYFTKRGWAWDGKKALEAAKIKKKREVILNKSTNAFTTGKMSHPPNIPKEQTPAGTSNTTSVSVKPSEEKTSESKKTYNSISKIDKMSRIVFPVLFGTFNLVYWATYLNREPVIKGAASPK

[2] = target: T2, GABA-A receptor; alpha-5/beta-3/gamma-2 (Homo sapiens) (UniProt P18507+P28472+P31644); assay: Negative allosteric modulation activity at human recombinant alpha5beta3gamma2 GABAA receptor stably expressed in HEK293 cells assessed as modulation at alpha5 subunit at 1 uM by Patch clamp method; format: cell-based; settings: filed as negative allosteric modulator
[3] = target: Voltage-gated inwardly rectifying potassium channel KCNH2 (Homo sapiens, UniProt Q12809); assay: Inhibition of hERG expressed in CHO cells stably at -80 mV holding potential by automated patch clamp method; format: toxicity, cell-based
Chain of Voltage-gated inwardly rectifying potassium channel KCNH2 (Q12809 whole entry): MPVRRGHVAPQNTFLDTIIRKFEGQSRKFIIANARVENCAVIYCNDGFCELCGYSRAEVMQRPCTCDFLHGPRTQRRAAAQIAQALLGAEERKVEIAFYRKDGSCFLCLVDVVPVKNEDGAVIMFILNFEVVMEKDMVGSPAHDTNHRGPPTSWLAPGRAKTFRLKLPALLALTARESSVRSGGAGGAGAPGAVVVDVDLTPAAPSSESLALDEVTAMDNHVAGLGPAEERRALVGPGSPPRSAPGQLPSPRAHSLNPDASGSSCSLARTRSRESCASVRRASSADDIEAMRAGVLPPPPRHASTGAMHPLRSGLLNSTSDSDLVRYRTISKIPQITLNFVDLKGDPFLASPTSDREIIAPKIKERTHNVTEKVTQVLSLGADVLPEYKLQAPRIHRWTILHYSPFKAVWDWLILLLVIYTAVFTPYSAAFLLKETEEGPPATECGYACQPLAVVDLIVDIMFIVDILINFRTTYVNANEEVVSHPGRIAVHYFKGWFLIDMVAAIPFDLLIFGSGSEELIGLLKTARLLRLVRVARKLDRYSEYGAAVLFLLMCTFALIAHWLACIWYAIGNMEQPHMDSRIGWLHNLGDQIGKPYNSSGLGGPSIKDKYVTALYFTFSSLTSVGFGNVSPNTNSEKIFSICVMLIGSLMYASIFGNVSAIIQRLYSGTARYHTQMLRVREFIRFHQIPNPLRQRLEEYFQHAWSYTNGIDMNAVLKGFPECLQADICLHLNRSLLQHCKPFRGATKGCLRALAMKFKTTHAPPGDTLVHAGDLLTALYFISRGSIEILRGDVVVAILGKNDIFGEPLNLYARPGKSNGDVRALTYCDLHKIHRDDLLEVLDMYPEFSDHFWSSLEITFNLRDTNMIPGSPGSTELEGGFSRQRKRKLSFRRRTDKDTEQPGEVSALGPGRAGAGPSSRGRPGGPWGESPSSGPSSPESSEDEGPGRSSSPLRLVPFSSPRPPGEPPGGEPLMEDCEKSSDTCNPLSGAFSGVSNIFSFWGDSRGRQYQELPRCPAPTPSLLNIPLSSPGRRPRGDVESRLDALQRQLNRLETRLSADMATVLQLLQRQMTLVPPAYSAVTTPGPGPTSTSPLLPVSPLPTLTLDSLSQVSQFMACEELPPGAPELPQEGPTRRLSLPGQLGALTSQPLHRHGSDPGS

[4] = target: T2, GABA-A receptor; alpha-5/beta-3/gamma-2 (Homo sapiens); assay: Negative allosteric modulation activity at human recombinant alpha5beta3gamma2 GABAA receptor stably expressed in HEK293 cells assessed as modulation at alpha5 subunit at 10 uM by Patch clamp method; format: cell-based; settings: filed as negative allosteric modulator
[5] = target: GABA-A receptor; alpha-1/beta-3/gamma-2 (Homo sapiens) (UniProt P14867+P18507+P28472); assay: Negative allosteric modulation activity at human recombinant alpha1beta3gamma2 GABAA receptor stably expressed in HEK293 cells assessed as modulation at alpha1 subunit at 10 uM by Patch clamp method; format: cell-based; settings: filed as negative allosteric modulator
[6] = Metabolic stability in human liver microsomes assessed as intrinsic clearance at 2.5 uM; format: ADME, Microsome; settings: read-out: CLH
[7] = Metabolic stability in Wistar rat liver microsomes assessed as intrinsic clearance at 2.5 uM; format: ADME, Microsome; settings: read-out: CLH
[8] = Apparent permeability in human Caco-2 cells at 10 uM by HPLC-UV analysis; format: ADME, cell-based
[9] = Passive permeability in human Caco-2 cells assessed as permeability damage ratio at 10 uM by HPLC-UV analysis; format: ADME, cell-based; settings: caco-2, 10 µM

Structure (SMILES)	Ki [1]	Activity [2]	IC50 [3]	Activity [4]	Activity [5]	microsomal CLint at 2.5 µM [6]	microsomal CLint at 2.5 µM [7]	Papp at 10 µM [8]	Ratio [9]
Cc1onc(-c2ccc(F)cc2)c1COc1ccc2c(n1)CCN(CC1CCCS1(=O)=O)C2=O (stereo not drawn)	23 nM	-23%	1800 nM	-36%	-12%				
CC(=O)N1CCc2nc(OCc3c(-c4ccc(F)cc4)noc3C)ccc2C1	1.9 nM	-19%	5300 nM	-16%		74 µL/min/mg	301 µL/min/mg		
Cc1nnn(-c2ccc(F)cc2)c1COc1ccc2c(n1)CCN(C(=O)NC1CCOC1)C2 (stereo not drawn)	28 nM	-32%	21000 nM	-34%		10 µL/min/mg	39 µL/min/mg	18.7 ×10⁻⁶ cm/s	4.7
Cc1onc(-c2ccc(F)cc2)c1COc1ccc2c(n1)CCN(C(=O)N1CCCCC1)C2	49 nM		10000 nM			107 µL/min/mg	359 µL/min/mg		
Cc1onc(-c2ccc(F)cc2)c1COc1cc2c(cn1)C(=O)NCC2	0.49 nM	15%		6%					
Cc1onc(-c2ccc(F)cc2)c1COc1ccc2c(n1)CCN(C(=O)C1CCCO1)C2 (stereo not drawn)	9.9 nM					42 µL/min/mg	210 µL/min/mg		
Cc1onc(-c2ccc(F)cc2)c1COc1ccc2c(n1)CCN(C(=O)N(C)C)C2	2.7 nM	-22%	8300 nM	-42%		49 µL/min/mg	356 µL/min/mg		
Cc1onc(-c2ccc(F)cc2)c1COc1ccc2c(n1)CCN(C(=O)C1CCS(=O)(=O)CC1)C2	3.6 nM	-22%	2900 nM	-38%	-10%	10 µL/min/mg	36 µL/min/mg		
Cc1onc(-c2ccc(F)cc2)c1COc1ccc2c(n1)CCN(C(=O)c1ccno1)C2	4.6 nM	-13%	6400 nM	-32%		67 µL/min/mg	245 µL/min/mg		
Cc1onc(-c2ccc(F)cc2)c1COc1ccc2c(n1)CCN(CC1CCCO1)C2=O (stereo not drawn)	23 nM	-29%	2900 nM	-28%	-6%				
Cc1onc(-c2ccc(F)cc2)c1COc1ccc2c(c1)CCNC2=O	10 nM	-6%		-7%		10 µL/min/mg	108 µL/min/mg		
Cc1onc(-c2ccc(F)cc2)c1COc1ccc(C(=O)N2CCS(=O)(=O)CC2)cn1 [BASMISANIL]	4.4 nM	-24%		-25%	-2%	7.5 µL/min/mg	22 µL/min/mg		
Cc1onc(-c2ccc(F)cc2)c1COc1ccc2c(n1)CCNC2=O	4.1 nM	-25%	10000 nM	-42%	2%	14 µL/min/mg	227 µL/min/mg		
Cc1onc(-c2ccc(F)cc2)c1COc1ccc2c(n1)CCN(C(=O)N1CCCC1)C2	7.3 nM	-12%	10000 nM	-36%		45 µL/min/mg	279 µL/min/mg		
CCC(=O)N1CCc2nc(OCc3c(C)nnn3-c3ccc(F)cc3)ccc2C1	46 nM					48 µL/min/mg	92 µL/min/mg		
Cc1onc(-c2ccc(F)cc2)c1COc1ccc2c(n1)CCN(C(=O)C1CC1)C2	8.3 nM	-4%	5800 nM	-34%		71 µL/min/mg	388 µL/min/mg		
Cc1onc(-c2ccc(F)cc2)c1COc1ccc2c(n1)CCN(C(=O)CCS(C)(=O)=O)C2	30 nM	-16%	4200 nM	-35%		9 µL/min/mg	44 µL/min/mg		
Cc1onc(-c2ccc(F)cc2)c1COc1ccc2c(n1)CCN(C(=O)C1CCOCC1)C2	9.2 nM	-20%	5700 nM	-37%	-9%	10 µL/min/mg	93 µL/min/mg		
Cc1onc(-c2ccc(F)cc2)c1COc1ccc2c(n1)CCN(Cc1ccco1)C2=O	21 nM	-14%	3500 nM	-31%		85 µL/min/mg	365 µL/min/mg		
Cc1onc(-c2ccc(F)cc2)c1COc1ccc2c(n1)CCN(C(=O)C1CCOC1)C2 (stereo not drawn)	7 nM	-24%	3600 nM	-40%	-14%	24 µL/min/mg	158 µL/min/mg		
Cc1onc(-c2ccc(F)cc2)c1COc1ccc2c(n1)CCN(C(=O)N1CCOCC1)C2	4.6 nM	-15%	9100 nM	-39%		32 µL/min/mg	142 µL/min/mg		
Cc1nnn(-c2ccc(F)cc2)c1COc1ccc2c(n1)CCN(C(=O)C1CC(=O)N(C)C1)C2 (stereo not drawn)	35 nM	-32%	30000 nM	-47%		1 µL/min/mg	4 µL/min/mg	7.54 ×10⁻⁶ cm/s	8.9
Cc1onc(-c2ccc(F)cc2)c1COc1ccc2c(n1)CCN(Cc1ccno1)C2=O	9 nM	-29%	2500 nM	-35%	-10%				
Cc1onc(-c2ccc(F)cc2)c1COc1ccc2c(n1)CCN(C(=O)C1CCC1)C2	13 nM	-7%	> 10000 nM	-26%		57 µL/min/mg	400 µL/min/mg		
Cc1nnn(-c2ccc(F)cc2)c1COc1ccc2c(n1)CCN(C(=O)C1CC1)C2	49 nM					53 µL/min/mg	99 µL/min/mg		
Cc1onc(-c2ccc(F)cc2)c1COc1ccc2c(n1)CCN(C(C)C)C2=O	13 nM	-9%	4400 nM	-25%	-2%	16 µL/min/mg	214 µL/min/mg		
Cc1onc(-c2ccc(F)cc2)c1COc1ccc2c(c1)CCC(=O)N2C	13 nM	-6%		-10%					
Cc1onc(-c2ccc(F)cc2)c1COc1ccc2c(n1)CCN(C)C2=O	2.8 nM	-21%	3800 nM	-31%	-8%	28 µL/min/mg	404 µL/min/mg		
Cc1onc(-c2ccc(F)cc2)c1COc1ccc2c(n1)CCN(C1CCOC1)C2=O (stereo not drawn)	8 nM	-25%	3200 nM	-39%	-10%	29 µL/min/mg	139 µL/min/mg		
Cc1onc(-c2ccc(F)cc2)c1COc1ccc2c(c1)OCC(=O)N2C	14 nM	-16%				33 µL/min/mg	381 µL/min/mg		
